The source of these data is US20220267374A1, “IMMUNITY INDUCER AND PHARMACEUTICAL COMPOSITION FOR PREVENTING OR TREATING AGING-RELATED DISEASES” (priority 2019, published 2022).

Ends that are not written are not given here.

The test system of assay [1] is GPNMB-positive cells. The experiment in a line: Analysis of Gpnmb-dependent luciferase activity (in vivo IVIS imaging). Details: species or system Gpnmb-DTR mouse. The following applies: Reference Example 1; HFD-fed Gpnmb-DTR mice, DT 50 μg/kg i.p. twice (12 and 14 weeks of age), 16 weeks of age; FIG. 1B. The procedure: Gpnmb-DTR mouse bred by feeding normal diet or HFD for 4 weeks, and Gpnmb-DTR mouse bred by feeding HFD for 4 weeks, and then injecting DT (50 μg/kg body weight) at 2-week intervals (12 weeks of age and 14 weeks of age) intraperitoneally twice while continuing to feed HFD (16 weeks of age) were subjected to in vivo luciferase imaging analysis using the IVIS imaging system (Perkin Elmer). Mice were shaved ventrally, anesthetized with isoflurane (Wako Pure Chemicals Industries), and injected intraperitoneally with luciferin (150 mg/kg body weight) according to the manufacturer's instructions (Vivo-Glo; Promega). Luciferase activity was monitored 5 minutes after luciferin administration. Signals were analyzed using Living Image software (Perkin Elmer) to quantify luciferase activity. In FIG. 1B, “Before” is a Gpnmb-DTR mouse before HFD was fed (6 weeks of age), “HFD” is a Gpnmb-DTR mouse that was fed with HFD from 6 weeks of age and bred for 6 weeks (12 weeks of age), and “After DT” is a Gpnmb-DTR mouse that was bred by feeding HFD for 4 weeks and then injecting DT (50 μg/kg body weight) at 2-week intervals (12 weeks of age and 14 weeks of age) intraperitoneally twice while continuing to feed HFD (16 weeks of age). […]

Assay [2] relates to GPNMB protein. The experiment in a line: Antibody titer by ELISA in plasma of vaccinated mice. It counts as in vivo, C57BL/6 mice. The following applies: vs control vaccine group; KLH-bound peptide 20 μg with Titer Max Gold s.c. at 8 weeks of age, HFD-fed mice; plasma up to 6 weeks; FIG. 2A. The procedure:
First, the antibody titers of the obtained two peptide vaccines were examined. Peptide vaccine 1 or peptide vaccine 2 (20 μg) and Titer Max Gold adjuvant (Titer Max USA) conjugated with KLH as carrier protein for induction of cytotoxic antibody were mixed in two syringes according to the manufacturer's protocol for emulsification. Subsequently, eight-week-old C57BL/6 mice fed with HFD from 4 weeks of age were subcutaneously injected with KLH-binding antigen peptide (20 μg) with a Titer Max Gold adjuvant to induce cytotoxic antibodies. C57BL/6 mice in the control group were subcutaneously injected with a KLH solution (hereinafter, referred to as “control vaccine”) mixed with Titer Max Gold in an equal amount. Plasma was collected from the tail vein of each mouse immediately after administration of the peptide vaccine and after 2, 4, and 6 weeks for antibody titer analysis. The antibody titer produced by injection of each peptide was measured by ELISA. Specifically, first, a 96-well microtiter plate (Nunc-Immuno MicroWell 96-well solid plate, Thermo Scientific) was coated using a carbonate buffer containing peptide vaccine 1 or peptide vaccine 2 bonded to bovine serum albumin (BSA). […] After reacting with the TMB substrate (Sigma-Aldrich, T0440), the optical density was measured at 450 nm (0D450) using a microtiter plate reader (iMark microplate reader, Bio-Rad).

Assay [3] can be described thus: Metabolic test (glucose tolerance test and insulin tolerance test). It counts as in vivo, C57BL/6 mice. The following applies: HFD-fed mice, 16 weeks of age, s.c. vaccination at 8 weeks of age; compared to control vaccine; FIG. 2I. The procedure: Mice were bred individually from 1 week before the test. On the day of the glucose tolerance test (GTT), mice were fasted for 6 hours, followed by intraperitoneal injection of glucose at a dose of 1 g/kg (body weight) in the early afternoon. For the insulin tolerance test (ITT), mice were intraperitoneally administered with human insulin (1 U/kg (body weight)). After administration of glucose or insulin, tail venous blood was collected 0, 15, 30, 60 and 120 minutes later, and the blood glucose level was measured with a glucose analyzer (Sanwa Chemical Research Institute).
A metabolic test was performed using the same method as in “5.” of Reference Example 1, except that C57BL/6 mice (16 weeks of age) bred by feeding HFD from 4 weeks of age and administered with peptide vaccine 1, peptide vaccine 2, or control vaccine by subcutaneous injection at a time point of 8 weeks of age were used. In FIG. 2I, “Cont vaccine” is a C57BL/6 mouse administered with a control vaccine, “Gpnmb vaccine 1” is a C57BL/6 mouse administered with peptide vaccine 1, and “Gpnmb vaccine 2” is a C57BL/6 mouse administered with peptide vaccine 2.

As to “diphtheria toxin [DT, reference compound]”, the “abdominal luciferase activity (Gpnmb-dependent)” value in assay [1] is recorded as “attenuated”.
As for “RSQHLRFPDR (also: KLH conjugate; listed as Mus musculus) [peptide vaccine 2, peptide of positions 150 to 159 of mouse GPNMB protein]”, the “antibody titer against GPNMB protein” value in assay [2] is reported as “slightly higher”. The “metabolic abnormality induced by HFD intake (glucose tolerance test and insulin tolerance test)” value in assay [3] was “significantly improved”.
